Assay results reported in ChEMBL document CHEMBL2057208, “Benzoylbenzimidazole-based selective inhibitors targeting Cryptosporidium parvum and Toxoplasma gondii calcium-dependent protein kinase-1” (Bioorg Med Chem Lett, 2012).
pEC50, pIC50: −log10 of the molar value. The source made the active and inactive calls. No cut-off for these calls is given here.

Columns and labels:
Cryptosporidium parvum = test: Antiparasitic activity against Cryptosporidium parvum up to 1 uM; type: functional, organism-based
Toxoplasma gondii = test: Antiparasitic activity against Toxoplasma gondii up to 1 uM; type: functional, organism-based
[1] = target: Proto-oncogene tyrosine-protein kinase Src (Homo sapiens, UniProt P12931); test: Inhibition of human SRC
HL-60 = test: cells; conditions: Homo sapiens
Description: Cytotoxicity against human HL60 cells after 48 to 72 hrs by Alamar blue assay

cells = conditions: Homo sapiens, CRL8155
Description: Cytotoxicity against human CRL8155 cells after 48 to 72 hrs by Alamar blue assay

[2] = target: T1, Calmodulin-domain protein kinase 1 (Toxoplasma gondii, UniProt Q9BJF5); test: Inhibition of Toxoplasma gondii CDPK1
T1 sequence (Q9BJF5 whole entry): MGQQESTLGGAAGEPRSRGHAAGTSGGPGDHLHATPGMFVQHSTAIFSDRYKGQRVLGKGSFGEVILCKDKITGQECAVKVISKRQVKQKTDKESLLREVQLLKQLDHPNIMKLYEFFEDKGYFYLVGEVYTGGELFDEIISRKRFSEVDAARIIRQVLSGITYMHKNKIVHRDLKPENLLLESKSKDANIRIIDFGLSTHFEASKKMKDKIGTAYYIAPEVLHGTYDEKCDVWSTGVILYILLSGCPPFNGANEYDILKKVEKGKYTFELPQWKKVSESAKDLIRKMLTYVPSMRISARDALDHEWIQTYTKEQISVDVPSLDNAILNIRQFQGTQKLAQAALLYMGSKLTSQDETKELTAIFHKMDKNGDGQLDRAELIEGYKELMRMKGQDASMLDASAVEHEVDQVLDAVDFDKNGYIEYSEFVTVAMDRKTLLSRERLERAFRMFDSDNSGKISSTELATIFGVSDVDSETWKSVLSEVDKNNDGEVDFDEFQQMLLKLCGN

[3] = Inhibition of Cryptosporidium parvum CDPK1
[4] = target: Tyrosine-protein kinase ABL1 (Homo sapiens, UniProt P00519); test: Inhibition of human ABL
Chain of Tyrosine-protein kinase ABL1 (P00519 whole entry): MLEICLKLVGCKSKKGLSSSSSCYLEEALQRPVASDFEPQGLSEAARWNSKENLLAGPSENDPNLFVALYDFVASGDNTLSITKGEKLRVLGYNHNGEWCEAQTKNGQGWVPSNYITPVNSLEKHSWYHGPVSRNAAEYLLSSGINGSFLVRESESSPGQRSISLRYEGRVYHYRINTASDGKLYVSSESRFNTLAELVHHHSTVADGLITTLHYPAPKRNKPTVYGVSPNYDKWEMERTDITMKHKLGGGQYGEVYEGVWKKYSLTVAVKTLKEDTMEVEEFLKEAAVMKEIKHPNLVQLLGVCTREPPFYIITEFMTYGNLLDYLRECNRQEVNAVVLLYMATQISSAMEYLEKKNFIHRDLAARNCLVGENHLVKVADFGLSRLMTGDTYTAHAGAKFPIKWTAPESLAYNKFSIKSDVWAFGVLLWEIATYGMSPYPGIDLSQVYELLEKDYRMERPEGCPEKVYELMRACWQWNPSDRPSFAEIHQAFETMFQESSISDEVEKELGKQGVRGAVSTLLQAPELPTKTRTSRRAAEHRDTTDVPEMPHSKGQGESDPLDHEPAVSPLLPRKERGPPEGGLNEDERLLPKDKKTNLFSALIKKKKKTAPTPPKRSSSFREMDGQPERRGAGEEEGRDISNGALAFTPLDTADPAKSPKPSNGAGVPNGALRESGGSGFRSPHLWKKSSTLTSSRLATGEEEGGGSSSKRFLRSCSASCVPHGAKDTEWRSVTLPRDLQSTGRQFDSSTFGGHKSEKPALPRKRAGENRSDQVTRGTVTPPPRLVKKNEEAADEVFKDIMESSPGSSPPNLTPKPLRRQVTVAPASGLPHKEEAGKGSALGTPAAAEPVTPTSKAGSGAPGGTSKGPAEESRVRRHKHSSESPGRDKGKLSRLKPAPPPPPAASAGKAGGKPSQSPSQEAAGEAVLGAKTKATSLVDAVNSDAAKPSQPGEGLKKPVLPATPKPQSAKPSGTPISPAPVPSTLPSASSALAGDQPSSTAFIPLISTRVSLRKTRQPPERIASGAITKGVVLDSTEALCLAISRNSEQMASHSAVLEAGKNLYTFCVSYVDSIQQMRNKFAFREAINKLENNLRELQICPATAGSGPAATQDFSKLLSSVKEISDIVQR

Chain of Proto-oncogene tyrosine-protein kinase Src (P12931 2-536 limits assumed): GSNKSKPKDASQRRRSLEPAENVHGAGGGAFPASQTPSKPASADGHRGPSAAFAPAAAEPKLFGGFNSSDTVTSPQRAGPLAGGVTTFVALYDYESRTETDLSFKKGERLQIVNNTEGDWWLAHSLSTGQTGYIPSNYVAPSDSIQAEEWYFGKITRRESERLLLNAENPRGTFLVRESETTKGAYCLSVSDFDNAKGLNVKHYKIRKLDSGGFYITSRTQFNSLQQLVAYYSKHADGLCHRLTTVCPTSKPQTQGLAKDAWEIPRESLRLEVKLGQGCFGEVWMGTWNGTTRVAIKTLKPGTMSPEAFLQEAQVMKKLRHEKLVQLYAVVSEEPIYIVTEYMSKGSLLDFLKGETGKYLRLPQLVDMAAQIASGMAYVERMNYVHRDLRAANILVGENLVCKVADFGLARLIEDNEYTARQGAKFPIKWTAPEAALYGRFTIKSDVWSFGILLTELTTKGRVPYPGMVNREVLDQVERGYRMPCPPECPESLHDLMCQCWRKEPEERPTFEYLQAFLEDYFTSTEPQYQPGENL

Row | SMILES | Activity (Cryptosporidium parvum) | Activity (Toxoplasma gondii) | pIC50 [1] | pEC50 (HL-60) | pEC50 (cells) | pIC50 [2] | pIC50 [3] | pIC50 [4]
1 | Nc1nc2ccc(C(=O)c3ccccc3)cc2[nH]1 | inactive | inactive | < 5.00 | < 4.52 | < 4.52 | 6.64 | 6.22 | –
2 | COC(=O)Nc1nc2ccc(C(=O)c3ccccc3)cc2[nH]1 [MEBENDAZOLE] | – | – | < 5.00 | – | – | 6.17 | – | 5.30
3 | O=C(NCCC1CCNCC1)Nc1nc2ccc(C(=O)c3ccccc3)cc2[nH]1 | inactive | inactive | – | < 4.52 | < 4.52 | 6.89 | 6.74 | 7.00
4 | CN1CCC(CCn2c(N)nc3ccc(C(=O)c4ccccc4)cc32)CC1 | inactive | inactive | < 5.00 | < 4.52 | < 4.52 | 7.52 | 7.59 | < 5.00
5 | Nc1nc2ccc(C(=O)c3ccccc3)cc2n1CC1CCNCC1 | inactive | inactive | < 5.00 | < 4.52 | < 4.52 | – | – | < 5.00
6 | Nc1nc2ccc(C(=O)c3ccccc3)cc2n1CC[C@@H]1CCCN1 | inactive | inactive | < 5.00 | < 4.52 | < 4.52 | 7.54 | 7.52 | < 5.00
7 | Nc1nc2ccc(C(=O)c3ccccc3)cc2n1CCC1CCNCC1 | inactive | inactive | < 5.00 | < 4.52 | < 4.52 | 7.70 | 7.77 | < 5.00
8 | CN1CCN(CCn2c(N)nc3ccc(C(=O)c4ccccc4)cc32)CC1 | inactive | inactive | < 5.00 | < 4.52 | < 4.52 | 7.37 | 7.44 | < 5.00
